Here are results for five compounds from patent US6921545B2 (priority 2001, dated 2005).

Each structure is given as a SMILES string. “And” between values parts separate entries of the source, which are not always exact repeats. Equal values may be shown once. Where a name gives a salt, the structure may show the parent alone.

Assay [1] deals with Tribolium castaneum 30 live beetles and brood. The settings on record: in vivo.
Assay [2] deals with Sitophilus granarius, Ephestia kuehniella eggs, Tribolium castaneum and brood. The following applies: in vivo.
The test system of assay [3] is Ephestia kuehniella (50 eggs). The settings on record: in vivo.
Assay [4] has as its system Sitophilus granarius (broodmixture). The settings on record: in vivo.
Another assay concerns insect eggs. The following applies: in vivo; cited from earlier work.

For the compound `O=S(=O)(F)F` [SO2F2, sulfuryl fluoride], the “Offspr. (offspring in the fumigation test)” value in assay [1] was 3 beetles and 4 beetles and 5 beetles; in assay [3] it was 0; in assay [4], 0 beetles. For the same compound, in assay [2], the offspring produced entry is on record as “offspring were produced”. In the case of `O=C=S` [carbonyl sulfide], the “minimum concentration for achieving an ovicidal action” value (from here on “minimum concentration”) in the assay on insect eggs is reported as 5 g/m^3.

For `CN=C=S` [methyl isothiocyanate], the “minimum concentration” value in the assay with insect eggs is 5 g/m^3. `COC=O` [methyl formate]: in the assay on insect eggs, the “minimum concentration” value is given as 20 g/m^3.

On to `CC#N` [acetonitrile], for which the “minimum concentration” value in the assay on insect eggs is on record as 10 g/m^3.
